# Laboratory results as given in patent US20230227546A1, “TYPE 2 CYTOKINES AS PREDICTORS OF DISEASE SEVERITY AND/OR AS T[…] FOR COVID-19” (priority 2020, published 2023).
# System: COVID-19
# Experiment: Retrospective analysis of international COVID-19 cohort (TriNetX COVID-19 Research Network), Dupilumab
# Type: in vivo, human
# Conditions: for Risk Difference (95% CI), Deceased / Risk Difference (95% CI), Ventilated: with vs without Dupilumab
# [1] = Diagnoses Matching, 65 patients with Dupilumab
# [2] = Dupilumab prescribed prior to COVID-19 diagnosis
# [3] = Full Cohort, 81 patients with Dupilumab
substance,measurement,setting,value
Dupilumab: anti-human IL4Rα monoclonal antibody that blocks IL-13 and IL-4 signaling; sold as DUPIXENT,Deceased (number of patients) With Dupilumab,"1:1 Propensity Score Matching, 81 patients",0
same,"Risk Difference (95% CI), Deceased",1:1 Propensity Score Matching,12.3% (5.2-19.5)
same,Serum C-Reactive Protein (CRP),COVID-19 patients With Dupilumab,25.3 mg/L
same,Deceased (number of patients) With Dupilumab,[1],0
same,Ventilated (number of patients) With Dupilumab,[1],0
same,"Risk Difference (95% CI), Deceased",Diagnoses Matching,1.83% (1.69-1.97)
same,"Risk Difference (95% CI), Ventilated",Diagnoses Matching,0.67% (0.58-0.75)
same,risk of death in COVID-19,[2],lower risk
same,risk of ventilation in COVID-19,[2],lower risk
same,CRP levels,Dupilumab-prescribed patients with COVID-19,reduced
same,Deceased (number of patients) With Dupilumab,[3],0
same,Ventilated (number of patients) With Dupilumab,[3],0
same,"Risk Difference (95% CI), Deceased",Full Cohort,1.98% (1.94-2.03)
same,"Risk Difference (95% CI), Ventilated",Full Cohort,0.37% (0.35-0.39)
same,CRP Sub-cohort Difference,With vs Without Dupilumab,12.
